PubChem BioAssay AID248 (DTP/NCI, 2004)
Where “and” joins values, the source holds several entries; their conditions need not be identical. Identical values can stand only once. Inconclusive results and toxic doses are left out.

System: L1210 leukemia ip in BDF1 mice, survival T/C
Test: NCI In Vivo Anticancer Drug Screen. Data for tumor model L1210 Leukemia (intraperitoneal) in B6D2F1 (BDF1) mice
Details: endpoint: mean survival time, higher = longer survival
Summary of the method: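 Each compound was tested against a transplantable tumor grown in mice. The endpoint was survival, with treated animals benchmarked against vehicle controls as a simple ratio.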

[1] = dose: 50.0 mg/kg/injection, schedule: Q01DX001 (ip), vehicle: carboxymethylcellulose (CMC)
[2] = dose: 100.0 mg/kg/injection, schedule: Q01DX001 (ip), vehicle: carboxymethylcellulose (CMC)
[3] = dose: 100.0 mg/kg/injection, schedule: Q01DX009 (ip), vehicle: saline
[4] = dose: 200.0 mg/kg/injection, schedule: Q01DX001 (ip), vehicle: carboxymethylcellulose (CMC)
[5] = dose: 200.0 mg/kg/injection, schedule: Q01DX009 (ip), vehicle: saline
[6] = dose: 400.0 mg/kg/injection, schedule: Q01DX001 (ip), vehicle: carboxymethylcellulose (CMC)
[7] = dose: 400.0 mg/kg/injection, schedule: Q01DX009 (ip), vehicle: saline
[8] = dose: 100.0 mg/kg/injection, schedule: Q01DX009 (ip), vehicle: Klucel (hydroxypropylcellulose) (HPC)
[9] = dose: 100.0 mg/kg/injection, schedule: Q04DX003 (ip), vehicle: Klucel (hydroxypropylcellulose) (HPC)
[10] = dose: 200.0 mg/kg/injection, schedule: Q01DX009 (ip), vehicle: Klucel (hydroxypropylcellulose) (HPC)
[11] = dose: 200.0 mg/kg/injection, schedule: Q04DX003 (ip), vehicle: Klucel (hydroxypropylcellulose) (HPC)
[12] = dose: 400.0 mg/kg/injection, schedule: Q04DX003 (ip), vehicle: Klucel (hydroxypropylcellulose) (HPC)
[13] = dose: 100.0 mg/kg/injection, schedule: Q01DX001 (ip), vehicle: saline with Tween-80
[14] = dose: 100.0 mg/kg/injection, schedule: Q01DX009 (ip), vehicle: saline with Tween-80
[15] = dose: 200.0 mg/kg/injection, schedule: Q01DX001 (ip), vehicle: saline with Tween-80
[16] = dose: 200.0 mg/kg/injection, schedule: Q01DX009 (ip), vehicle: saline with Tween-80
[17] = dose: 400.0 mg/kg/injection, schedule: Q01DX001 (ip), vehicle: saline with Tween-80
[18] = dose: 400.0 mg/kg/injection, schedule: Q01DX009 (ip), vehicle: saline with Tween-80
[19] = dose: 100.0 mg/kg/injection, schedule: Q01DX001 (ip), vehicle: saline
[20] = dose: 200.0 mg/kg/injection, schedule: Q01DX001 (ip), vehicle: saline
[21] = dose: 400.0 mg/kg/injection, schedule: Q01DX001 (ip), vehicle: saline
[22] = dose: 25.0 mg/kg/injection, schedule: Q01DX009 (ip), vehicle: saline
[23] = dose: 100.0 mg/kg/injection, schedule: Q04DX003 (ip), vehicle: saline with Tween-80
[24] = dose: 200.0 mg/kg/injection, schedule: Q04DX003 (ip), vehicle: saline with Tween-80
[25] = dose: 400.0 mg/kg/injection, schedule: Q04DX003 (ip), vehicle: saline with Tween-80
[26] = dose: 100.0 mg/kg/injection, schedule: Q04DX002 (ip), vehicle: saline with Tween-80
[27] = dose: 200.0 mg/kg/injection, schedule: Q04DX002 (ip), vehicle: saline with Tween-80
[28] = dose: 50.0 mg/kg/injection, schedule: Q01DX001 (ip), vehicle: saline
[29] = dose: 25.0 mg/kg/injection, schedule: Q01DX001 (ip), vehicle: saline

CC(=O)CO
T/C [1]: 98 % of control | T/C [2]: 101 % of control | T/C [3]: 90 % of control | T/C (dose: 100.0 mg/kg/injection, schedule: Q04DX003 (ip), vehicle: saline): 93 % of control | T/C [4]: 101 % of control | T/C [5]: 97 % of control | T/C (dose: 200.0 mg/kg/injection, schedule: Q04DX003 (ip), vehicle: saline): 96 % of control | T/C [6]: 98 % of control | T/C [7]: 100 % of control | T/C (dose: 400.0 mg/kg/injection, schedule: Q04DX003 (ip), vehicle: saline): 101 % of control

CSc1ccc(OC(=O)Nc2ccc(Cl)c(Cl)c2)cc1C
T/C [8]: 106 % of control | T/C [9]: 88 % of control | T/C [10]: 92 % of control | T/C [11]: 93 % of control | T/C (dose: 400.0 mg/kg/injection, schedule: Q01DX009 (ip), vehicle: Klucel (hydroxypropylcellulose) (HPC)): 92 % of control | T/C [12]: 88 % of control

Cc1nc(-c2ccccc2)cc(=O)o1
T/C [9]: 102 % of control | T/C [11]: 102 % of control | T/C [12]: 98 % of control

CC(C)N(/N=N/c1[nH]ncc1C(N)=O)C(C)C
T/C [13]: 104 % of control | T/C [14]: 108 % of control | T/C [15]: 104 % of control | T/C [16]: 98 % of control | T/C [17]: 93 % of control | T/C [18]: 95 % of control

CC(=O)NC1C(OCc2ccccc2)OC2COC(C)(C)OC2C1O (stereo unspecified)
T/C [13]: 107 % of control | T/C [15]: 93 % of control | T/C [17]: 110 % of control

NC(=O)NCc1ccccc1
T/C [19]: 105 % of control | T/C [20]: 97 % of control | T/C [21]: 103 % of control

S=C([SH2+])[SH2+].S=C([SH2+])[SH2+].[Pt+2].c1ccc(C[P+](c2ccccc2)(c2ccccc2)c2ccccc2)cc1
T/C (dose: 12.5 mg/kg/injection, schedule: Q01DX009 (ip), vehicle: saline): 96 % of control | T/C [22]: 97 % of control

Nc1c(Cl)cc([N+](=O)[O-])cc1Cl
T/C [1]: 95 % of control | T/C [2]: 92 % of control | T/C [14]: 103 % of control | T/C [23]: 97 % of control | T/C [4]: 106 % of control | T/C [16]: 92 % of control | T/C [24]: 93 % of control | T/C [6]: 95 % of control | T/C [18]: 95 % of control | T/C [25]: 93 % of control

CCOC(=O)c1cnc(=S)[nH]c1N
T/C (dose: 50.0 mg/kg/injection, schedule: Q01DX009 (ip), vehicle: Klucel (hydroxypropylcellulose) (HPC)): 102 % of control | T/C (dose: 50.0 mg/kg/injection, schedule: Q04DX003 (ip), vehicle: Klucel (hydroxypropylcellulose) (HPC)): 95 % of control | T/C [8]: 96 % of control | T/C [9]: 95 % of control | T/C [10]: 93 % of control | T/C [11]: 97 % of control

CCCCC(CN)c1cccc2ccccc12 (stereo unspecified)
T/C (dose: 25.0 mg/kg/injection, schedule: Q04DX002 (ip), vehicle: saline with Tween-80): 95 % of control | T/C (dose: 50.0 mg/kg/injection, schedule: Q04DX002 (ip), vehicle: saline with Tween-80): 92 % of control

CCOC(=O)NC(=S)Nc1ccccc1NC(=S)NC(=O)OCC
T/C (dose: 100.0 mg/kg/injection, schedule: Q04DX003 (ip), vehicle: gum acacia): 97 % of control | T/C (dose: 200.0 mg/kg/injection, schedule: Q04DX003 (ip), vehicle: gum acacia): 97 % of control | T/C (dose: 400.0 mg/kg/injection, schedule: Q04DX003 (ip), vehicle: gum acacia): 94 % of control

C=CCC1(C(=C)C)C(=O)NC(=S)NC1=O
T/C (dose: 75.0 mg/kg/injection, schedule: Q01DX001 (ip), vehicle: carboxymethylcellulose (CMC)): 95 % of control | T/C (dose: 75.0 mg/kg/injection, schedule: Q01DX001 (ip), vehicle: saline): 91 % of control | T/C (dose: 150.0 mg/kg/injection, schedule: Q01DX001 (ip), vehicle: carboxymethylcellulose (CMC)): 105 % of control | T/C (dose: 150.0 mg/kg/injection, schedule: Q01DX001 (ip), vehicle: saline): 102 % of control

O=C(O)c1ccc(N=Cc2ccc(N(CCCl)CCCl)cc2)cc1O
T/C [2]: 95 % of control | T/C [4]: 101 % of control

CCC[CH2][Ge]([CH2]CCC)[O][Ge]([CH2]CCC)[CH2]CCC
T/C [26]: 87 % of control

O=C(Nc1ccccc1[N+](=O)[O-])OCc1ccc([N+](=O)[O-])cc1
T/C [23]: 92 % of control | T/C [24]: 105 % of control | T/C [25]: 105 % of control

OC1(c2ccccc2)c2ccccc2-c2ccccc21
T/C [14]: 101 % of control | T/C [23]: 98 % of control | T/C [16]: 106 % of control | T/C [24]: 93 % of control | T/C [18]: 106 % of control | T/C [25]: 95 % of control

CCCCCCCC(=O)[O][Hg][c]1ccccc1
T/C (dose: 9.38 mg/kg/injection, schedule: Q01DX001 (ip), vehicle: saline): 98 % of control | T/C (dose: 18.75 mg/kg/injection, schedule: Q01DX001 (ip), vehicle: saline): 88 % of control | T/C (dose: 37.5 mg/kg/injection, schedule: Q01DX001 (ip), vehicle: saline): 102 % of control

CC(C)=CCC/C(C)=C/COC(N)=O
T/C [26]: 100 % of control and 101 % of control | T/C [27]: 100 % of control and 99 % of control

O=C(CCc1ccccc1)NC(=S)Nc1ccc(I)cc1
T/C (dose: 12.5 mg/kg/injection, schedule: Q01DX009 (ip), vehicle: saline with Tween-80): 94 % of control and 90 % of control | T/C [13]: 106 % of control | T/C [26]: 104 % of control | T/C [23]: 100 % of control | T/C [15]: 103 % of control | T/C [27]: 93 % of control and 101 % of control | T/C [24]: 97 % of control | T/C [17]: 91 % of control | T/C [18]: 95 % of control and 99 % of control | T/C (dose: 400.0 mg/kg/injection, schedule: Q04DX002 (ip), vehicle: saline with Tween-80): 101 % of control and 90 % of control | T/C [25]: 96 % of control

CC(C)(CC(N)=O)C(=O)O
T/C [28]: 102 % of control | T/C [19]: 115 % of control | T/C [20]: 113 % of control | T/C [21]: 110 % of control

CC(=O)C(CCS(C)(=O)=O)(CCS(C)(=O)=O)C(=O)O
T/C [9]: 107 % of control | T/C [11]: 94 % of control | T/C [12]: 103 % of control

CCC1COP(=O)(c2ccccc2)OC1 (stereo unspecified)
T/C [19]: 103 % of control | T/C [20]: 103 % of control | T/C [21]: 100 % of control

CC1(C)N=C(N)N=C(N)N1c1cc(Cl)ccc1Cl
T/C (dose: 12.0 mg/kg/injection, schedule: Q04DX003 (ip), vehicle: saline): 117 % of control | T/C (dose: 12.5 mg/kg/injection, schedule: Q01DX001 (ip), vehicle: saline): 98 % of control | T/C [29]: 90 % of control | T/C [22]: 101 % of control | T/C (dose: 25.0 mg/kg/injection, schedule: Q04DX003 (ip), vehicle: saline): 100 % of control | T/C [28]: 98 % of control | T/C (dose: 50.0 mg/kg/injection, schedule: Q01DX009 (ip), vehicle: saline): 97 % of control | T/C (dose: 50.0 mg/kg/injection, schedule: Q04DX003 (ip), vehicle: saline): 103 % of control

O=C1CCCCCCCCC1O (stereo unspecified)
T/C [14]: 120 % of control | T/C [3]: 333 % of control | T/C [9]: 103 % of control | T/C [16]: 101 % of control | T/C [5]: 114 % of control | T/C [11]: 115 % of control | T/C [18]: 97 % of control | T/C [7]: 105 % of control | T/C [12]: 108 % of control

N#CC(C#N)=c1ccc(=C(C#N)C#N)cc1
T/C (dose: 25.0 mg/kg/injection, schedule: Q01DX009 (ip), vehicle: saline with Tween-80): 91 % of control | T/C [28]: 94 % of control | T/C (dose: 50.0 mg/kg/injection, schedule: Q01DX009 (ip), vehicle: saline with Tween-80): 89 % of control | T/C [19]: 103 % of control | T/C [14]: 91 % of control | T/C [20]: 103 % of control

COc1cc(C=Nc2ccccc2)cc(OC)c1OC
T/C [9]: 104 % of control | T/C [11]: 102 % of control | T/C [12]: 95 % of control

CCc1ccc(N2C(N)=NC(N)=NC2(C)C)cc1
T/C [29]: 104 % of control | T/C [28]: 100 % of control | T/C [19]: 105 % of control and 110 % of control

CCOC(=O)/C=C1\NC(=O)N(CCCN2C(=O)N/C(=C\C(=O)OCC)C2=O)C1=O
T/C [14]: 97 % of control
